Data reported in article doi:10.1101/2019.12.11.872838v1 (biorxiv, 2019).

Target: KDM1A (Homo sapiens, UniProt O60341)
Experiment: ALPHA screen demethylation assay
Assay type: biochemical

Question: Which IC50 does the source give for `CO[C@H]1/C=C\C=C(/C)C(=O)NC2=CC(=O)C(NCCN(C)C)=C(C[C@@H](C)C[C@H](OC)[C@H](O)[C@@H](C)/C=C(\C)[C@@H]1OC(N)=O)C2=O` [17-DMAG] here?
Answer: > 10 µM
